# Experimental data reported in patent US10004701B2, “Methods and compositions for treating infection” (UNIVERSITY OF ROCHESTER, priority 2012, dated 2018).
# Structures can show the parent of a compound that is named as a salt. Where two headings read alike, the source gives them in different places.
# Tests used:
# Assay in all cases: AK assay 384-well format, Prestwick library screening
# [1] = tested on: E. coli; type: cell-based, Escherichia coli; conditions: 50 μM final drug concentration; for fold induction at 50 µM: Escherichia coli, 3 h
# [2] = tested on: K. pneumoniae; type: cell-based, Klebsiella pneumoniae; conditions: 50 μM final drug concentration; for fold induction at 50 µM: Klebsiella pneumoniae, 3 h
# [3] = tested on: P. aeruginosa; type: cell-based, Pseudomonas aeruginosa; conditions: 50 μM final drug concentration; for fold induction at 50 µM: Pseudomonas aeruginosa, 3 h
# [4] = tested on: A. baumannii strain 98-37-09; type: cell-based, Acinetobacter baumannii; conditions: 50 μM final drug concentration; for fold induction at 50 µM: Acinetobacter baumannii, 983709, 3 h
# [5] = tested on: S. aureus strain USA300-0114; type: cell-based, Staphylococcus aureus; conditions: 50 μM final drug concentration; for fold induction at 50 µM: Staphylococcus aureus, USA300, 3 h
# [6] = tested on: E. cloacae; type: cell-based, Enterobacter cloacae; conditions: 50 μM final drug concentration; for fold induction at 50 µM: Enterobacter cloacae, 3 h
# [7] = tested on: E. faecium; type: cell-based, Enterococcus faecium; conditions: 50 μM final drug concentration; for fold induction at 50 µM: Enterococcus faecium, 3 h
# [8] = planktonic, cutoff for positive-scoring molecules 3-fold increase
# [9] = 384-well format, cutoff for positive-scoring molecules 3-fold increase, read-out: AK-based Prestwick Library Screening Results, E. coli (increase in extracellular AK activity)
# [10] = 384-well format, cutoff for positive-scoring molecules 3-fold increase, read-out: AK-based Prestwick Library Screening Results, K. pneumoniae (increase in extracellular AK activity)
# [11] = 384-well format, cutoff for positive-scoring molecules 3-fold increase, read-out: AK-based Prestwick Library Screening Results, P. aeruginosa (increase in extracellular AK activity)
# [12] = 384-well format, cutoff for positive-scoring molecules 3-fold increase, read-out: AK-based Prestwick Library Screening Results, A. baumannii (increase in extracellular AK activity)
# [13] = 384-well format, cutoff for positive-scoring molecules 3-fold increase, read-out: AK-based Prestwick Library Screening Results, S. aureus (increase in extracellular AK activity)
# [14] = 384-well format, cutoff for positive-scoring molecules 3-fold increase, read-out: AK-based Prestwick Library Screening Results, E. cloacae (increase in extracellular AK activity)
# [15] = 384-well format, cutoff for positive-scoring molecules 3-fold increase, read-out: AK-based Prestwick Library Screening Results, E. faecium (increase in extracellular AK activity)
smiles,measurement,setting,value
Cl.Cl.c1ccc2c3c([nH]c2c1)C1C2CCC(C4CCCNC42)N1CC3 (stereo not shown) [Nitrarine dihydrochloride],"AK-based Prestwick Library Screening Results, E. coli (fold increase in extracellular AK activity)","[1]; planktonic, […]",1.2
same,"AK-based Prestwick Library Screening Results, K. pneumoniae (fold increase in extracellular AK activity)",[2]; [8],1.1
same,"AK-based Prestwick Library Screening Results, P. aeruginosa (fold increase in extracellular AK activity)",[3]; [8],1.1
same,"AK-based Prestwick Library Screening Results, A. baumannii (fold increase in extracellular AK activity)",[4]; [8],1.0
same,"AK-based Prestwick Library Screening Results, S. aureus (fold increase in extracellular AK activity)",[5]; [8],1.3
same,"AK-based Prestwick Library Screening Results, E. cloacae (fold increase in extracellular AK activity)",[6]; [8],1.4
same,"AK-based Prestwick Library Screening Results, E. faecium (fold increase in extracellular AK activity)",[7]; [8],1.0
CCOC(=O)C1=C(C)NC(C)=C(C(=O)OC)C1c1cccc([N+](=O)[O-])c1 (stereo not shown) [Nitrendipine],fold induction at 50 µM,"[1]; planktonic, cutoff for positive-scoring molecules 3-fold increase, read-out: AK-based Prestwick Library Screening Results, E. coli (fold increase in extracellular AK activity)",0.8
same,fold induction at 50 µM,"[2]; planktonic, cutoff for positive-scoring molecules 3-fold increase, read-out: AK-based Prestwick Library Screening Results, K. pneumoniae (fold increase in extracellular AK activity)",0.8
same,fold induction at 50 µM,"[3]; planktonic, cutoff for positive-scoring molecules 3-fold increase, read-out: AK-based Prestwick Library Screening Results, P. aeruginosa (fold increase in extracellular AK activity)",0.9
same,fold induction at 50 µM,"[4]; planktonic, cutoff for positive-scoring molecules 3-fold increase, read-out: AK-based Prestwick Library Screening Results, A. baumannii (fold increase in extracellular AK activity)",0.9
same,fold induction at 50 µM,"[5]; planktonic, cutoff for positive-scoring molecules 3-fold increase, read-out: AK-based Prestwick Library Screening Results, S. aureus (fold increase in extracellular AK activity)",0.4
same,fold induction at 50 µM,"[6]; planktonic, cutoff for positive-scoring molecules 3-fold increase, read-out: AK-based Prestwick Library Screening Results, E. cloacae (fold increase in extracellular AK activity)",1.4
same,fold induction at 50 µM,"[7]; planktonic, cutoff for positive-scoring molecules 3-fold increase, read-out: AK-based Prestwick Library Screening Results, E. faecium (fold increase in extracellular AK activity)",0.9
CCN(CC)CCOC(=O)C1(c2ccc([N+](=O)[O-])cc2)CCCC1.Cl [Nitrocaramiphen hydrochloride],"AK-based Prestwick library screening result, E. coli (fold increase in extracellular AK activity)","[1]; planktonic E. coli, […]",0.9
same,"AK-based Prestwick library screening result, K. pneumoniae (fold increase in extracellular AK activity)","[2]; planktonic K. pneumoniae, […]",0.7
same,"AK-based Prestwick library screening result, P. aeruginosa (fold increase in extracellular AK activity)","[3]; planktonic P. aeruginosa, […]",0.8
same,"AK-based Prestwick library screening result, A. baumannii (fold increase in extracellular AK activity)","[4]; planktonic A. baumannii, […]",0.7
same,"AK-based Prestwick library screening result, S. aureus (fold increase in extracellular AK activity)","[5]; planktonic S. aureus, […]",0.6
same,"AK-based Prestwick library screening result, E. cloacae (fold increase in extracellular AK activity)","[6]; planktonic E. cloacae, […]",1.2
same,"AK-based Prestwick library screening result, E. faecium (fold increase in extracellular AK activity)","[7]; planktonic E. faecium, […]",0.9
NC(=O)N/N=C/c1ccc([N+](=O)[O-])o1 [Nitrofural],fold induction at 50 µM,"[1]; planktonic E. coli, cutoff for positive-scoring molecules 3-fold increase, read-out: AK-based Prestwick Library Screening Results, E. coli (increase in extracellular AK activity)",0.7
same,fold induction at 50 µM,"[2]; planktonic K. pneumoniae, cutoff for positive-scoring molecules 3-fold increase, read-out: AK-based Prestwick Library Screening Results, K. pneumoniae (increase in extracellular AK activity)",0.2
same,fold induction at 50 µM,"[3]; planktonic P. aeruginosa, cutoff for positive-scoring molecules 3-fold increase, read-out: AK-based Prestwick Library Screening Results, P. aeruginosa (increase in extracellular AK activity)",0.8
same,fold induction at 50 µM,"[4]; planktonic A. baumannii, cutoff for positive-scoring molecules 3-fold increase, read-out: AK-based Prestwick Library Screening Results, A. baumannii (increase in extracellular AK activity)",1
same,fold induction at 50 µM,"[5]; planktonic S. aureus, cutoff for positive-scoring molecules 3-fold increase, read-out: AK-based Prestwick Library Screening Results, S. aureus (increase in extracellular AK activity)",0.5
same,fold induction at 50 µM,"[6]; planktonic E. cloacae, cutoff for positive-scoring molecules 3-fold increase, read-out: AK-based Prestwick Library Screening Results, E. cloacae (increase in extracellular AK activity)",0.8
same,fold induction at 50 µM,"[7]; planktonic E. faecium, cutoff for positive-scoring molecules 3-fold increase, read-out: AK-based Prestwick Library Screening Results, E. faecium (increase in extracellular AK activity)",1
O=C1CN(/N=C/c2ccc([N+](=O)[O-])o2)C(=O)N1 [Nitrofurantoin],fold induction at 50 µM,[1]; [9],0.4
same,fold induction at 50 µM,[2]; [10],0.8
same,fold induction at 50 µM,[3]; [11],0.4
same,fold induction at 50 µM,[4]; [12],0.5
same,fold induction at 50 µM,[5]; [13],0.4
same,fold induction at 50 µM,[6]; [14],0.6
same,fold induction at 50 µM,[7]; [15],1
CNC(=C[N+](=O)[O-])NCCSCc1csc(CN(C)C)n1 [Nizatidine],fold induction at 50 µM,"[1]; cutoff for positive-scoring molecules 3-fold increase, read-out: AK-based Prestwick Library Screening Results, E. coli (fold increase in extracellular AK activity)",1.3
same,fold induction at 50 µM,"[2]; cutoff for positive-scoring molecules 3-fold increase, read-out: AK-based Prestwick Library Screening Results, K. pneumoniae (fold increase in extracellular AK activity)",0.9
same,fold induction at 50 µM,"[3]; cutoff for positive-scoring molecules 3-fold increase, read-out: AK-based Prestwick Library Screening Results, P. aeruginosa (fold increase in extracellular AK activity)",1.2
same,fold induction at 50 µM,"[4]; cutoff for positive-scoring molecules 3-fold increase, read-out: AK-based Prestwick Library Screening Results, A. baumannii (fold increase in extracellular AK activity)",1
same,fold induction at 50 µM,"[5]; cutoff for positive-scoring molecules 3-fold increase, read-out: AK-based Prestwick Library Screening Results, S. aureus (fold increase in extracellular AK activity)",1.2
same,fold induction at 50 µM,"[6]; cutoff for positive-scoring molecules 3-fold increase, read-out: AK-based Prestwick Library Screening Results, E. cloacae (fold increase in extracellular AK activity)",1.7
same,fold induction at 50 µM,"[7]; cutoff for positive-scoring molecules 3-fold increase, read-out: AK-based Prestwick Library Screening Results, E. faecium (fold increase in extracellular AK activity)",1
COC(=O)Nc1nc2ccc(C(=O)c3cccs3)cc2[nH]1 [Nocodazole],fold induction at 50 µM,[1]; [9],0.6
same,fold induction at 50 µM,[2]; [10],0.5
same,fold induction at 50 µM,[3]; [11],0.6
same,fold induction at 50 µM,[4]; [12],0.6
same,fold induction at 50 µM,[5]; [13],0.6
same,fold induction at 50 µM,[6]; [14],0.7
same,fold induction at 50 µM,[7]; [15],0.9
CC(=O)O[C@]1(C(C)=O)CC[C@H]2[C@@H]3C=C(C)C4=CC(=O)CC[C@@H]4[C@H]3CC[C@@]21C [Nomegestrol acetate],fold induction at 50 µM,"[1]; planktonic E. coli, positive cutoff 3-fold increase, read-out: AK-based Prestwick library screening result, E. coli (fold increase in extracellular AK activity)",1.1
same,fold induction at 50 µM,"[2]; planktonic K. pneumoniae, positive cutoff 3-fold increase, read-out: AK-based Prestwick library screening result, K. pneumoniae (fold increase in extracellular AK activity)",1.1
same,fold induction at 50 µM,"[3]; planktonic P. aeruginosa, positive cutoff 3-fold increase, read-out: AK-based Prestwick library screening result, P. aeruginosa (fold increase in extracellular AK activity)",1.1
same,fold induction at 50 µM,"[4]; planktonic A. baumannii, positive cutoff 3-fold increase, read-out: AK-based Prestwick library screening result, A. baumannii (fold increase in extracellular AK activity)",1.1
same,fold induction at 50 µM,"[5]; planktonic S. aureus, positive cutoff 3-fold increase, read-out: AK-based Prestwick library screening result, S. aureus (fold increase in extracellular AK activity)",1
same,fold induction at 50 µM,"[6]; planktonic E. cloacae, positive cutoff 3-fold increase, read-out: AK-based Prestwick library screening result, E. cloacae (fold increase in extracellular AK activity)",1.5
same,fold induction at 50 µM,"[7]; planktonic E. faecium, positive cutoff 3-fold increase, read-out: AK-based Prestwick library screening result, E. faecium (fold increase in extracellular AK activity)",1.2
CN1Cc2c(N)cccc2C(c2ccccc2)C1 (stereo not shown) [Nomifensine maleate],fold induction at 50 µM,"[1]; 384-well format, […], read-out: AK-based Prestwick Library Screening Results, E. coli (increase in extracellular AK activity)",0.9
same,fold induction at 50 µM,[2]; [10],0.8
same,fold induction at 50 µM,[3]; [11],0.8
same,fold induction at 50 µM,[4]; [12],0.8
same,fold induction at 50 µM,[5]; [13],0.7
same,fold induction at 50 µM,[6]; [14],1
same,fold induction at 50 µM,[7]; [15],0.9
CNCCC=C1c2ccccc2C=Cc2ccccc21 [Norcyclobenzaprine],"AK-based Prestwick Library Screening Results, E. coli (increase in extracellular AK activity)","[1]; planktonic E. coli, cutoff for positive-scoring molecules 3-fold increase",6.3
same,"AK-based Prestwick Library Screening Results, K. pneumoniae (increase in extracellular AK activity)","[2]; planktonic K. pneumoniae, cutoff for positive-scoring molecules 3-fold increase",0.9
same,"AK-based Prestwick Library Screening Results, P. aeruginosa (increase in extracellular AK activity)","[3]; planktonic P. aeruginosa, cutoff for positive-scoring molecules 3-fold increase",1.0
same,"AK-based Prestwick Library Screening Results, A. baumannii (increase in extracellular AK activity)","[4]; planktonic A. baumannii, cutoff for positive-scoring molecules 3-fold increase",1.1
same,"AK-based Prestwick Library Screening Results, S. aureus (increase in extracellular AK activity)","[5]; planktonic S. aureus, cutoff for positive-scoring molecules 3-fold increase",0.6
same,"AK-based Prestwick Library Screening Results, E. cloacae (increase in extracellular AK activity)","[6]; planktonic E. cloacae, cutoff for positive-scoring molecules 3-fold increase",1.3
same,"AK-based Prestwick Library Screening Results, E. faecium (increase in extracellular AK activity)","[7]; planktonic E. faecium, cutoff for positive-scoring molecules 3-fold increase",0.8
